This assay addresses T1, rh-integrin α4β7/LPAM-1 (Homo sapiens, UniProt P13612+P26010).
T1 sequence (P13612 34-977 limits assumed): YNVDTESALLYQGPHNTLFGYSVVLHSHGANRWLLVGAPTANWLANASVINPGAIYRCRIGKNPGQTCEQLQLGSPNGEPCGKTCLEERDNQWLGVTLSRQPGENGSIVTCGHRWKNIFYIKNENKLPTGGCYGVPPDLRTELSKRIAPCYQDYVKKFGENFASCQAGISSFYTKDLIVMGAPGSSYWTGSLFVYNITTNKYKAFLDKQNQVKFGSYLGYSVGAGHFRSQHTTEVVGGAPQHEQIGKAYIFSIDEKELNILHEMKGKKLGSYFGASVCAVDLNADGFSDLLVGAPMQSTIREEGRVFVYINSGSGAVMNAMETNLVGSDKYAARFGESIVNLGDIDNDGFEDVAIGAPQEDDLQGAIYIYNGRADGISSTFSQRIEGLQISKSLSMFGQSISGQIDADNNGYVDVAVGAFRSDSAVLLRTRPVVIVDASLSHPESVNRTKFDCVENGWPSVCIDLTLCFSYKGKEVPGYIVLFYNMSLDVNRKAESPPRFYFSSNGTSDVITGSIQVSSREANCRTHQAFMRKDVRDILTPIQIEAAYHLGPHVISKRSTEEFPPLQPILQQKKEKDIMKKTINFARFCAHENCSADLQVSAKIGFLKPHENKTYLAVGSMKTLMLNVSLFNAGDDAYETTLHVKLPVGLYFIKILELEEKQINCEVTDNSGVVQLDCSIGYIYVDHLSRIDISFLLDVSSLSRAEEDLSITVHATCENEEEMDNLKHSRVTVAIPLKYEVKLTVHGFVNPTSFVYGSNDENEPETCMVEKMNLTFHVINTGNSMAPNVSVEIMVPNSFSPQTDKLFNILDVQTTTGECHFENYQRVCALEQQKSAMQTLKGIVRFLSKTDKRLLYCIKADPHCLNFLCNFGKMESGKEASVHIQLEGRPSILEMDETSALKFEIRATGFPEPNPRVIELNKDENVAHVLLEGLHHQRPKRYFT
T1 sequence (P26010 20-723 limits assumed): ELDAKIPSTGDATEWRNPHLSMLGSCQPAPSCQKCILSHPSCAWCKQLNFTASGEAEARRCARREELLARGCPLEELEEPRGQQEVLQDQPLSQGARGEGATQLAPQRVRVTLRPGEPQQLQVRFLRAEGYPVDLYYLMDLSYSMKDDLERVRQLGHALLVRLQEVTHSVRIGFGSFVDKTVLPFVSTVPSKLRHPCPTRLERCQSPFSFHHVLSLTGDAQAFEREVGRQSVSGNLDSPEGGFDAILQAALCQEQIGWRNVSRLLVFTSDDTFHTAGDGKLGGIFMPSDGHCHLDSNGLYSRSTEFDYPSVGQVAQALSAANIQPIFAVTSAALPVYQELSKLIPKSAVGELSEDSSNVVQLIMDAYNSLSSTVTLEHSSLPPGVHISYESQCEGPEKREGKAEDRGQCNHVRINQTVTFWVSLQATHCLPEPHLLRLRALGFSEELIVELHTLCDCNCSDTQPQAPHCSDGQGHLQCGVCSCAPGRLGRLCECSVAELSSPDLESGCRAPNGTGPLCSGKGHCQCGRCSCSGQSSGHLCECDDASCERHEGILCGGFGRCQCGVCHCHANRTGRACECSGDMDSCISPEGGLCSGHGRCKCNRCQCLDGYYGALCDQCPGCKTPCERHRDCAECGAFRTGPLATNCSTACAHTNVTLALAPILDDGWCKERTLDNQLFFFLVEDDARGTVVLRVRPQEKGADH
Briefly: α4β7-MadCAM Competition ELISA (Example 4). The format is binding. As to conditions: inhibition of MAdCAM binding to coated α4β7. The procedure:
After washing with wash buffer, 200 μL assay buffer was added to each well and incubated for one hour at 28° C. After another wash with wash buffer, 100 μL of a MAdCAM and peptide mixture in assay buffer was added to each well and incubated for one hour at 28° C., followed by washing with wash buffer.
On the technique in general: In an ELISA, binding on a coated surface is turned into a signal by an enzyme label.

Where [1] appears, read: Table 3 Representative compounds, read-out: IC50.

What is called IC50 is the concentration at which inhibition is half-maximal.

Read-outs that look alike come from different tables or passages of the source. Numbered stars: 1 amine (or outer) side, 2 acyl side, 3 side chain; on linkers, the order of the positions; unused ones are H or OH. Bridge positions count the residues as written; N and C are the ends. Square brackets hold non-standard residues; d marks the D form. Peptide text beside a SMILES is read from it. * marks the point of attachment. X8 = O=C(/C=N/O/C=C/CCCCOc1cc(C[*:2])cc(C[*:3])c1)[*:1]; X3 = O=C(/C=N/OCCCCCCOc1cc(C[*:2])cc(C[*:3])c1)[*:1]; X7 = O=C(/C=N\OCc1cc(C[*:2])cc(C[*:3])c1)[*:1]; X11 = CCCCCOc1cc(C[*:1])cc(C[*:2])c1; Met(O) = CS(=O)CC[C@H](N)C(=O)O; Nle = CCCC[C@H](N)C(=O)O; X10 = CO/N=C/C(=O)*

On to `C[C@@H](O)[C@@H]1NC(=O)[C@H](CC(=O)O)NC(=O)[C@@H]2CCCN2C(=O)[C@H](Cc2ccc(O)cc2)NC(=O)[C@@H]2CSCc3cc(cc(c3)OCCCC/C=C/O/N=C/C(=O)N[C@@H](CC(N)=O)C(=O)N2)CSC[C@@H](C(N)=O)NC(=O)[C@H](Cc2cnc[nH]2)NC(=O)[C@H](Cc2ccc(O)cc2)NC1=O` [compound 89, TSL6- SNCYPDTYHC] (NCYPDTYHC-NH2; linker N-2-9 via X8), for which the IC50 under setting [1] was found to be 79.3 µM.
Consider `CC[C@H](C)[C@@H]1NC(=O)[C@H]([C@@H](C)O)NC(=O)[C@H](CC(=O)O)NC(=O)[C@H](CO)NC(=O)[C@H](CCCNC(=N)N)NC(=O)[C@@H]2CSCc3cc(cc(c3)OCCCCCCO/N=C/C(=O)N[C@@H](C)C(=O)N2)CSC[C@@H](C(N)=O)NC1=O` [compound 90, TSL6- SACRSDTLC] (ACRSDTIC-NH2; linker N-2-8 via X3), for which the IC50 under setting [1] came to 79.8 µM.
As to `CC[C@H](C)[C@@H]1NC(=O)/C=N/OCCCCCCOc2cc3cc(c2)CSC[C@H](NC1=O)C(=O)N[C@@H](Cc1ccc(O)cc1)C(=O)N1CCC[C@H]1C(=O)N[C@@H](CC(=O)O)C(=O)N[C@@H]([C@@H](C)O)C(=O)N[C@@H](Cc1ccc(O)cc1)C(=O)N[C@@H](Cc1cnc[nH]1)C(=O)N[C@H](C(N)=O)CSC3` [compound 91, TSL6- SICYPDTYHC] (ICYPDTYHC-NH2; linker N-2-9 via X3), under setting [1], the IC50 was 93.2 µM.
Turning to `CC[C@H](C)[C@@H]1NC(=O)[C@H](CC(=O)O)NC(=O)[C@H](CC(C)C)NC(=O)[C@@H]2CSCc3cc(cc(c3)OCCCCCCO/N=C/C(=O)N[C@@H](CCCNC(=N)N)C(=O)N2)CSC[C@@H](C(N)=O)NC(=O)[C@H](CC(=O)O)NC(=O)[C@H](Cc2ccc(O)cc2)NC(=O)[C@H]([C@@H](C)O)NC1=O` [compound 92, TSL6- SRCLDIMYDC] (RCLDITYDC-NH2; linker N-2-9 via X3), under setting [1], the IC50 was 100 µM.
Take `C[C@@H]1NC(=O)/C=N/OCCCCCCOc2cc3cc(c2)CSC[C@H](NC1=O)C(=O)N[C@@H](Cc1ccc(O)cc1)C(=O)N1CCC[C@H]1C(=O)N[C@@H](CC(=O)O)C(=O)N[C@@H]([C@@H](C)O)C(=O)N[C@@H](Cc1ccc(O)cc1)C(=O)N[C@@H](Cc1cnc[nH]1)C(=O)N[C@H](C(N)=O)CSC3` [compound 93, TSL6- SACYPDTYHC] (ACYPDTYHC-NH2; linker N-2-9 via X3): under setting [1], the IC50 was 111 µM.
In the case of `CC[C@H](C)[C@@H]1NC(=O)[C@H]([C@@H](C)O)NC(=O)[C@H](CC(=O)O)NC(=O)[C@H](CO)NC(=O)[C@H](CCCNC(=N)N)NC(=O)[C@@H]2CSCc3cc(cc(c3)CSC[C@@H](C(N)=O)NC1=O)CO/N=C\C(=O)N[C@@H](C)C(=O)N2` [compound 94, TSL1- SACRSDTLC] (ACRSDTIC-NH2; linker N-2-8 via X7), the IC50 (IC50, Table 3 Representative compounds) is 111 µM.
`C[C@@H](O)[C@@H]1NC(=O)[C@H](CC(=O)O)NC(=O)[C@@H]2CCCN2C(=O)[C@H](Cc2c[nH]c3ccccc23)NC(=O)[C@@H]2CSCc3cc(cc(c3)OCCCCCCO/N=C/C(=O)N[C@@H](CC(=O)O)C(=O)N2)CSC[C@H](C(N)=O)NC(=O)[C@H](Cc2cnc[nH]2)NC(=O)[C@H](Cc2ccc(O)cc2)NC1=O` [compound 95, TSL6- SDCWPDTYHC] (DCWPDTYH[dC]-NH2; linker N-2-9 via X3): the IC50 under setting [1] came out at 114 µM.
With `NC(=O)[C@@H]1CSCc2cc3cc(c2)OCCCCCCO/N=C/C(=O)N[C@@H](CC(=O)O)C(=O)N[C@@H](CSC3)C(=O)N[C@@H](Cc2ccc(O)cc2)C(=O)N2CCC[C@H]2C(=O)N[C@@H](CC(=O)O)C(=O)N[C@@H](Cc2ccccc2)C(=O)N[C@@H](Cc2ccc(O)cc2)C(=O)N[C@@H](Cc2cnc[nH]2)C(=O)N1` [compound 96, TSL6- SDCYPDFYHC] (DCYPDFYHC-NH2; linker N-2-9 via X3), under setting [1], the IC50 was 124 µM.
On the same count and under the same terms, the figure for `CCCCCOc1cc2cc(c1)CSC[C@H](NC(=O)[C@H](Cc1ccccc1)NC(=O)/C=N/OC)C(=O)N[C@@H](CC(C)C)C(=O)NCC(=O)N[C@@H](Cc1ccc(O)cc1)C(=O)N[C@@H](CCC(=O)O)C(=O)N[C@@H](C)C(=O)N[C@@H]([C@@H](C)O)C(=O)N[C@H](C(N)=O)CSC2` [compound 97, TSL6- SFCLGYEASC] (X10-FCLGYEATC-NH2; linker 2-9 via X11) is 127 µM.
Consider `CSCC[C@@H]1NC(=O)/C=N/OCCCCCCOc2cc3cc(c2)CSC[C@H](NC1=O)C(=O)N1CCC[C@H]1C(=O)N[C@@H](CC(C)C)C(=O)N[C@@H](Cc1ccc(O)cc1)C(=O)N[C@@H](CCCCN)C(=O)N[C@@H](C(C)C)C(=O)N[C@@H](Cc1cnc[nH]1)C(=O)N[C@H](C(N)=O)CSC3` [compound 98, TSL6- SMCPLYKVHC] (MCPLYKVHC-NH2; linker N-2-9 via X3), for which the IC50 under setting [1] was 151 µM.
On the same count and under the same terms, for `CC[C@H](C)[C@@H]1NC(=O)[C@H](C)NC(=O)[C@H](CC[S+](C)[O-])NC(=O)[C@@H]2CCCN2C(=O)[C@@H]2CSCc3cc(cc(c3)OCCCCCCO/N=C/C(=O)N[C@@H](CCC(N)=O)C(=O)N2)CSC[C@@H](C(N)=O)NC(=O)[C@H]([C@@H](C)O)NC(=O)[C@@H]2CCCN2C1=O` (stereo partly shown) [compound 99, TSL6-SQCP{Ox-Met} AIPTC] (QCP[Met(O)]AIPTC-NH2; linker N-2-9 via X3) the value was 152 µM; for `CSCC[C@@H]1NC(=O)[C@H]([C@@H](C)O)NC(=O)[C@H](C)NC(=O)CNC(=O)[C@@H]2CSCc3cc(cc(c3)OCCCCCCO/N=C/C(=O)N[C@@H](Cc3ccccc3)C(=O)N2)CSC[C@@H](C(N)=O)NC(=O)[C@H](CCCCN)NC(=O)[C@H](CCCCN)NC1=O` [compound 100, TSL6- SFCGATMKKC] (FCGATMKKC-NH2; linker N-2-9 via X3), 162 µM.
Same read-out and setting: the figure for `CSCC[C@@H]1NC(=O)/C=N/OCCCCCCOc2cc3cc(c2)CSC[C@H](NC1=O)C(=O)N[C@@H](Cc1ccc(O)cc1)C(=O)N1CCC[C@H]1C(=O)N[C@@H](CC(=O)O)C(=O)N[C@@H]([C@@H](C)O)C(=O)N[C@@H](Cc1ccc(O)cc1)C(=O)N[C@@H](Cc1cnc[nH]1)C(=O)N[C@H](C(N)=O)CSC3` [compound 101, TSL6- SMCYPDTYHC] (MCYPDTYHC-NH2; linker N-2-9 via X3) is 167 µM; for `CSCC[C@@H]1NC(=O)[C@H](CCC(N)=O)NC(=O)[C@@H]2CSCc3cc(cc(c3)OCCCCCCO/N=C/C(=O)N[C@@H](Cc3ccccc3)C(=O)N2)CSC[C@@H](C(N)=O)NC(=O)[C@H](C)NC(=O)[C@H](CCCCN)NC(=O)[C@H](CCC(=O)O)NC(=O)[C@H](Cc2ccccc2)NC1=O` [compound 102, TSL6- SFCQMFEKAC] (FCQMFEKAC-NH2; linker N-2-9 via X3) it is 178 µM; for `CCCC[C@@H]1NC(=O)[C@H](CO)NC(=O)[C@@H]2CSSC[C@@H](C(=O)N[C@@H](Cc3c[nH]c4ccccc34)C(=O)N[C@@H](CCC(N)=O)C(N)=O)NC(=O)[C@H](CC(C)C)NC(=O)[C@@H](CC(=O)O)NC(=O)[C@H](CCCC)NC(=O)[C@H](CO)NC(=O)[C@H](CCCNC(=N)N)NC(=O)[C@H](CSCC(=O)N[C@@H](CCCNC(=N)N)C(=O)N2)NC(=O)[C@H](CC(C)C)NC(=O)[C@H](CC(=O)O)NC1=O` [compound 103, Disulfide- RCS{Nle}DICRS NleDICWQ] ({CH2CO}-RCS[Nle]DLCRS[Nle][dD]LCWQ-NH2; disulfide 2-13; thioether N-7) it is 263 µM.
Consider `CC(C)C[C@@H]1NC(=O)[C@H](Cc2ccccc2)NC(=O)[C@@H]2CSCc3cc(cc(c3)OCCCCCCO/N=C/C(=O)N[C@@H]([C@@H](C)O)C(=O)N2)CSC[C@@H](C(N)=O)NC(=O)[C@H](CC(N)=O)NC(=O)[C@H](CCCCN)NC(=O)[C@H](C(C)C)NC(=O)[C@H](CC(=O)O)NC1=O` [compound 104, TSL6- STCFLDVKNC] (TCFLDVKNC-NH2; linker N-2-9 via X3), for which the IC50 under setting [1] is 311 µM.

The record behind these values is US20230145835A1, “Modulators of Alpha-4-beta-7 Integrin and MAdCAM” (48HD Biopharma Inc., priority 2021, published 2023).
